Experimental data reported in patent US5405837A, “Method for the treatment of neoplastic disease utilizing tiazofurin and ribavirin” (Indiana University Foundation, priority 1993, dated 1995).

Columns and labels:
IMP DH = IMP DH activity in ACI/N rats bearing s.c. transplanted hepatoma 3924A after tiazofurin and subsequent ribavirin; assay type: in vivo, rat
Description: In this example, ACI/N rats bearing s.c. transplanted hepatoma 3924A were administered daily i.p. injections of 150 mg/kg tiazofurin (trade name Tiazole, Viratek, Inc.) for two days. The rats were then divided into two groups: one received daily i.p. injections of saline, the other received 100 mg/kg ribavirin (trade name Virazole, Viratek, Inc.) for an additional two days.
Tiazofurin reduced the IMP DH activity to 10% and ribavirin maintained the inhibition of IMP DH activity at 20-30% of the control values. The IMP DH activity in the saline-treated rats returned to the untreated levels. (see FIGS. 1 through 5).

rat bone marrow = experiment: Ribavirin alone versus tiazofurin, IMP DH activity and cellularity in rat bone marrow (FIGS. 1 and 2); assay type: in vivo; details: at lower doses
Excerpt: (see FIGS. 1 and 2). […] Bekesi, J. G. et al., Treatment of Spontaneous Leukemia in AKR Mice with Chemotherapy, Immunotherapy, or Interferon, Cancer Research 36:631-639 (1976).
FIG. 1 is a graph of experimental data showing the effect of Tiazofurin and subsequent Ribavirin treatment on IMP DH activity in rat bone marrow.
FIG. 2 is a graph of experimental data showing the effect of Tiazofuran and subsequent Ribavirin treatment on cellularity in rat bone marrow.

spontaneous leukemia = details: in some cases; Cancer Research 36:631-639 (1976); cited from earlier work

Row | Compound | IMP DH activity, % of the control values (IMP DH; 100 mg/kg ribavirin daily i.p. for two more days after two days of tiazofurin 150 mg/kg) | effectiveness when administered alone (rat bone marrow) | antitumor effect (spontaneous leukemia) | IMP DH activity (IMP DH; 150 mg/kg tiazofurin daily i.p. for two days, ACI/N rats with hepatoma 3924A) [%]
1 | NC(=O)c1ncn([C@@H]2O[C@H](CO)[C@@H](O)[C@H]2O)n1 [ribavirin, 1-β-D-ribofuranosyl-1,2,4-triazole-3-carboxamide] | 20-30% | less effective than tiazofurin | little or no antitumor effect | –
2 | NC(=O)c1csc([C@@H]2O[C@H](CO)[C@@H](O)[C@H]2O)n1 [tiazofurin, 2-β-D-ribofuranosylthiazole-4-carboxamide] | – | – | – | 10
